According to PMC4965013, “Open Source Drug Discovery with the Malaria Box Compound Collection for Neglected Diseases and Beyond” (PLoS Pathogens, 2016):
pEC50, pIC50, pKi: −log10 of the molar value. Each block holds one compound with its values, some of them ahead of it.

Key:
[1] = test system: P. falciparum 3D7 trophozoites; assay: Metabolomic fingerprint profiling LC-MS; format: cell-based, Plasmodium falciparum; set-up: UDP-D-glucose / ADP-D-glucose: unit not given here
[2] = test system: P. falciparum W2 apicoplast; settings: ref [60]; cited from earlier work
[3] = test system: P. falciparum Dd2 apicoplast; settings: ref [61]; cited from earlier work
[4] = biological target: T1, 6-Phosphogluconolactonase (Plasmodium falciparum, UniProt Q8IKU0); assay: Bioaffinity Mass Spectrometry Screening, 6-Phosphogluconolactonase; format: binding; settings: compound:protein ~5:1
T1 construct: […]; His6 with linker ([…]) (N); made in house
Experimental: (§1) Bioaffinity Mass Spectrometry Screening Method
(§2) Recombinant proteins were prepared by the Van Voorhis group according to the same protocol as in [25]. Proteins were buffer-exchanged into a suitable volatile buffer (ammonium acetate or ammonium bicarbonate) for native ESI-MS. Depending on the protein, the buffer and its concentration is chosen to obtain the highest sensitivity in the mass spectrometer. We have chosen ammonium acetate buffer (10mM, pH 7) for these two proteins, dUTPase and 6-Phosphogluconolactonase.
(§3) High-resolution Fourier transform mass spectrometry (FTMS) can identify the molecular weight of the bound ligand. The difference between the mass-to-charge ratio (Δm/z) for the unbound protein and the [protein-bound ligand] complex ions was multiplied by the charge state (z) to directly afford the molecular weight of the bound ligand, using the following equation.
(§4) The BMSS assay was performed on 400 Malaria Box compounds against 25 Plasmodium falciparum proteins, which are critical in malaria cell growth and invasion. Pools of eight Malaria Box compounds (each compound 1 µL, 1 mM in methanol) were incubated with a P. falciparum protein one hour at room temperature. When a non-covalent complex was found, the molecular weight of the binding compound was deducted from the spectrum. On the basis of this information, a binding confirmation on the selected compound was performed. […]

P. falciparum = assay: EC50 listed in S2 Table Metabolomics (used to set the concentration tested); format: cell-based; settings: Plasmodium falciparum; EC50 used for Factor_XEC50 in metabolomics; read-out: EC50_nM
Dictyostelium discoideum = settings: 7.5 µM; ref [150]; cited from earlier work
CYP 2C19 = settings: cited from earlier work
Cryptosporidium parvum = Cryptosporidium parvum high content microscopy in HCT-8
[5] = set-up: method as in ref WuXi; settings: WuXi's Acceptance Range For Positive Controls; ref WuXi; cited from earlier work
M3 receptor = biological target: T2, M3 receptor (Homo sapiens, UniProt P20309); assay: M3 radioligand binding; settings: reference compound
T2 construct: purchased Perkin Elmer

[6] = test system: Schistosoma mansoni adult males; assay: S. mansoni adult phenotypic and motility screen Caffrey
[7] = test system: Schistosoma mansoni schistosomula (somules); assay: S. mansoni somules phenotypic screen Caffrey; settings: 2.5 µM, 48 h
[8] = test system: S. mansoni newly transformed schistosomula (NTS); set-up: method as in ref [91] (a number printed in a supplementary file, which may have a reference list of its own: not looked up in the article's list); settings: ref [91]; read-out: Schistosoma mansoni newly transformed schistosomula EC50 J. Keiser; cited from earlier work
S. mansoni adult worms = test system: S. mansoni adult worms; set-up: method as in ref [91] (a number printed in a supplementary file, which may have a reference list of its own: not looked up in the article's list); settings: ref [91]; read-out: Schistosoma mansoni adult worm EC50 J. Keiser; cited from earlier work
[9] = cited from earlier work
dUTPase = biological target: T3, dUTPase (Plasmodium falciparum, UniProt Q8II92); assay: Bioaffinity Mass Spectrometry Screening, dUTPase; format: binding; settings: compound:protein ~5:1
T3 construct: […]; made in house
Experimental: as §1, §2, §3, §4

PfCDPK4 = settings: ref [25]; cited from earlier work
[10] = test system: Mycobacterium marinum in Acanthamoeba castellanii; set-up: method as in ref [150] (a number printed in a supplementary file, which may have a reference list of its own: not looked up in the article's list); settings: 30 µM; ref [150]; cited from earlier work
Mycobacterium marinum = assay: M. marinum antibiotic assay; format: cell-based; settings: 10µM
Experimental: Columns FA-FC: Soldati Group (data presented first in this paper). M. marinum, D. discoideum, and Acathamoeba castellani assays. Each compound of the Malaria Box has been assayed at 10 µM in all three assays. First, the antibiotic activity was assayed directly against Mycobacterium marinum in its culture medium. Second, the toxicity and growth inhibitory effect of the compounds was assayed against the amoeba Dictyostelium discoideum in its culture medium. Finally, the “in cellulo” anti-infective activity of each compound was tested using the intracellular infection system Acanthamoeba castellanii-M. marinum. Values have been normalized using the DMSO carrier. For each assay, values have been normalized to 1.00 using the DMSO carrier, which has no detectable effect on D. discoideum nor M. marinum growth, while rifabutin was used as positive control for the antibiotic assay and the infection assay, as it abolishes M. marinum growth (normalized value under 0.10) in broth at 10 µM and intracellularly at 30 µM [150].

5-HT4 receptor = biological target: T4, 5-HT4 receptor (Homo sapiens, UniProt Q13639); assay: 5-HT4 radioligand binding; settings: reference compound
T4 construct: expressed in transfected cells; host or cells: HeLa

[11] = metabolite level change after treatment

T4 sequence (Q13639 whole entry): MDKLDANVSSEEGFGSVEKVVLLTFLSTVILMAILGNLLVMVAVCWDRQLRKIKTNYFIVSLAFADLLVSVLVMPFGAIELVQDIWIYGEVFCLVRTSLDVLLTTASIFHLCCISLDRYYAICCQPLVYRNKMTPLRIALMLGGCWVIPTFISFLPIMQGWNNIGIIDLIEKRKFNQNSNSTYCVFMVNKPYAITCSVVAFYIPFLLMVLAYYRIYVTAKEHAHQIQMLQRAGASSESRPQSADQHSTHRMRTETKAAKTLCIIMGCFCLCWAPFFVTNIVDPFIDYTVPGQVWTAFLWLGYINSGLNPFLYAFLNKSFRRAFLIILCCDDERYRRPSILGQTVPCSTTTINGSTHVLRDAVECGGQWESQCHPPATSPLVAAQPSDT
T2 sequence (P20309 whole entry): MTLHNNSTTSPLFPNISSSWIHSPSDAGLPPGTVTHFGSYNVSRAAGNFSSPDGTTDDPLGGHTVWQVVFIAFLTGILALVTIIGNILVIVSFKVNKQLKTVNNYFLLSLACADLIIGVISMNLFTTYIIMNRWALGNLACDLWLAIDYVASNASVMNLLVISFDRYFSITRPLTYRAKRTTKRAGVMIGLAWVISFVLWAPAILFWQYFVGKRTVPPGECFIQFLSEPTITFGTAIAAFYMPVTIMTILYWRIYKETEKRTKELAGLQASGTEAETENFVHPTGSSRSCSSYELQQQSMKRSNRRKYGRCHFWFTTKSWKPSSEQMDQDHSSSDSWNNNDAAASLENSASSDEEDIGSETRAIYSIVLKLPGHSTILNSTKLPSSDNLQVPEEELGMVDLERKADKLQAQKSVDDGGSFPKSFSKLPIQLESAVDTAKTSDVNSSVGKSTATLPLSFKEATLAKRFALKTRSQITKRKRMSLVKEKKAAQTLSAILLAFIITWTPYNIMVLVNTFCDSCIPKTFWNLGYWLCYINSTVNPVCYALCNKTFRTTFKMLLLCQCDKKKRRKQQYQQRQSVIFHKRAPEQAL
T3 sequence (Q8II92 whole entry, added parts left off): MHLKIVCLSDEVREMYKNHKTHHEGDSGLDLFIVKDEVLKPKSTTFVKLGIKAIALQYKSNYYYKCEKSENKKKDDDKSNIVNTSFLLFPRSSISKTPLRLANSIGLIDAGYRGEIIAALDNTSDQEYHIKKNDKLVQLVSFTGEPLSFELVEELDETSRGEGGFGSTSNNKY
T1 sequence (Q8IKU0 1-327): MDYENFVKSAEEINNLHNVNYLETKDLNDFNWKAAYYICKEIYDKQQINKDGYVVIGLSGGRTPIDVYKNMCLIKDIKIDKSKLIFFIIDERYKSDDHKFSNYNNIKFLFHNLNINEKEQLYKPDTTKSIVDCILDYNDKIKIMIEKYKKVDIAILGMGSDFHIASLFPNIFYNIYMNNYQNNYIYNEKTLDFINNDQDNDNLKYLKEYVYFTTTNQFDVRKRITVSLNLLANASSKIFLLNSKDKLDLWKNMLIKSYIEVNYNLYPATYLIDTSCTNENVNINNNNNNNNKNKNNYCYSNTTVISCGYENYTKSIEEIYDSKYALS

SMILES: O=C(O)C1Cc2c([nH]c3ccccc23)C(c2ccc(Cl)cc2Cl)N1 (stereo not drawn) [MMV008138]
- Acetyllysine ([1]; S2 Table Metabolomics, metabolite Acetyllysine): 0.5387
- N-acetyl-L-ornithine ([1]; S2 Table Metabolomics, metabolite N-acetyl-L-ornithine): 0.5503
- N-carbamoyl-L-aspartate ([1]; S2 Table Metabolomics, metabolite N-carbamoyl-L-aspartate): 0.144
- NADPH ([1]; S2 Table Metabolomics, metabolite NADPH): 0.4869
- dAMP ([1]; S2 Table Metabolomics, metabolite dAMP): 0.6135
- dCMP ([1]; S2 Table Metabolomics, metabolite dCMP): 0.1541
- dTDP ([1]; S2 Table Metabolomics, metabolite dTDP): 0.7214
- dTMP ([1]; S2 Table Metabolomics, metabolite dTMP): 0.483
- dTTP ([1]; S2 Table Metabolomics, metabolite dTTP): 0.2857
- dihydroorotate ([1]; S2 Table Metabolomics, metabolite dihydroorotate): 0.2096
- orotate ([1]; S2 Table Metabolomics, metabolite orotate): 0.1204
- DLH ([1]; S2 Table Metabolomics, peptide DLH): -0.1546
- DLS/SDL/SID ([1]; S2 Table Metabolomics, peptide DLS/SDL/SID): 0.007657
- PD ([1]; S2 Table Metabolomics, peptide PD): 0.2545
- PEE ([1]; S2 Table Metabolomics, peptide PEE): 0.5615
- PVNF ([1]; S2 Table Metabolomics, peptide PVNF): -0.063
- 3-phosphoglycerate ([1]; metabolite 3-phosphoglycerate, S2 Table Metabolomics): 0.3297
- ADP-D-glucose ([1]; metabolite ADP-D-glucose, S2 Table Metabolomics): 0.3003
- ATP ([1]; metabolite ATP, S2 Table Metabolomics): 0.2312
- CDP ([1]; metabolite CDP, S2 Table Metabolomics, change in metabolite level after compound treatment): 0.6827
- D-sedoheptulose-1/7-phosphate ([1]; metabolite D-sedoheptulose-1/7-phosphate, S2 Table Metabolomics, change in metabolite level after compound treatment): 0.414
- FAD ([1]; metabolite FAD, S2 Table Metabolomics): 0.2533
- GMP ([1]; metabolite GMP, S2 Table Metabolomics, change in metabolite level after compound treatment): -0.6458
- NAD+ ([1]; metabolite NAD+, S2 Table Metabolomics): 0.09564
- NADP+ ([1]; metabolite NADP+, S2 Table Metabolomics): 0.2678
- Octoluse Bisphosphate ([1]; metabolite Octoluse Bisphosphate, S2 Table Metabolomics, change in metabolite level after compound treatment): 0.757
- Pyroglutamic acid ([1]; metabolite Pyroglutamic acid, S2 Table Metabolomics): -0.1569
- UDP-D-glucose ([1]; metabolite UDP-D-glucose, S2 Table Metabolomics): 0.2273
- UDP-D-glucuronate ([1]; metabolite UDP-D-glucuronate, S2 Table Metabolomics): 0.2472
- UDP-N-acetyl-glucosamine ([1]; metabolite UDP-N-acetyl-glucosamine, S2 Table Metabolomics): 0.2573
- UDP ([1]; metabolite UDP, S2 Table Metabolomics, change in metabolite level after compound treatment): 0.7153
- UMP ([1]; metabolite UMP, S2 Table Metabolomics, change in metabolite level after compound treatment): -0.1378
- UTP ([1]; metabolite UTP, S2 Table Metabolomics, change in metabolite level after compound treatment): 0.4566
- a-ketoglutarate ([1]; metabolite a-ketoglutarate, S2 Table Metabolomics): -0.4582
- citrate/isocitrate ([1]; metabolite citrate/isocitrate, S2 Table Metabolomics, change in metabolite level after compound treatment): -0.1476
- cytidine ([1]; metabolite cytidine, S2 Table Metabolomics): -0.2541
- dATP ([1]; metabolite dATP, S2 Table Metabolomics): 0.1704
- dGMP/AMP ([1]; metabolite dGMP/AMP, S2 Table Metabolomics, change in metabolite level after compound treatment): 0.6095
- fumarate ([1]; metabolite fumarate, S2 Table Metabolomics, change in metabolite level after compound treatment): 0.1788
- glucose-1/6-phosphate ([1]; metabolite glucose-1/6-phosphate, S2 Table Metabolomics, change in metabolite level after compound treatment): 0.6615
- glycerate ([1]; metabolite glycerate, S2 Table Metabolomics, change in metabolite level after compound treatment): 0.3332
- guanine ([1]; metabolite guanine, S2 Table Metabolomics, change in metabolite level after compound treatment): -0.07738
- guanosine ([1]; metabolite guanosine, S2 Table Metabolomics, change in metabolite level after compound treatment): -0.4378
- hypoxanthine ([1]; metabolite hypoxanthine, S2 Table Metabolomics): -0.1251
- indole ([1]; metabolite indole, S2 Table Metabolomics): -0.05929
- inosine ([1]; metabolite inosine, S2 Table Metabolomics, change in metabolite level after compound treatment): -0.03831
- 2_3-Diphosphoglyceric acid [1, 11]: 0.5774
- 4-phosphopantothenate [1, 11]: 0.6234
- 6-phospho-D-gluconate [1, 11]: 0.4127
- FMN [1, 11]: 0.5115
- IMP [1, 11]: 0.3745
- Pyrophosphate [1, 11]: 0.4065
- Sedoheptoluse bisphosphate [1, 11]: 0.7391
- cyclic-AMP [1, 11]: 0.217
- glutathione disulfide [1, 11]: 0.4434
- lactate [1, 11]: -0.4969
- myo-inositol [1, 11]: 0.6581
- nicotinate ([1]; metabolite nicotinate, S2 Table Metabolomics): -0.1339
- ornithine ([1]; metabolite ornithine, S2 Table Metabolomics): 0.07192
- phosphoenolpyruvate ([1]; metabolite phosphoenolpyruvate, S2 Table Metabolomics): 0.04449
- pyruvate ([1]; metabolite pyruvate, S2 Table Metabolomics, change in metabolite level after compound treatment): -0.3198
- ribose-phosphate ([1]; metabolite ribose-phosphate, S2 Table Metabolomics): 0.3445
- sarcosine/alanine ([1]; metabolite sarcosine/alanine, S2 Table Metabolomics, change in metabolite level after compound treatment): 0.05421
- sn-glycerol-3-phosphate ([1]; metabolite sn-glycerol-3-phosphate, S2 Table Metabolomics): -0.3078
- succinate/methylmalonic acid ([1]; metabolite succinate/methylmalonic acid, S2 Table Metabolomics, change in metabolite level after compound treatment): 0.03332
- uridine ([1]; metabolite uridine, S2 Table Metabolomics, change in metabolite level after compound treatment): -0.07029
- xanthosine ([1]; metabolite xanthosine, S2 Table Metabolomics, change in metabolite level after compound treatment): -0.1854
- rescue by IPP supplementation in words [2]: highest level of rescue
- apicoplast targeting in words [3]: targets the apicoplast
- binding to 6-Phosphogluconolactonase (confirmation) [4]: binding
- pEC50 (P. falciparum): 6.46

SMILES: CN1CCC[C@H]1c1cccnc1 [Nicotine]
- D. discoideum growth, positive control (Dictyostelium discoideum): abolishes its growth

SMILES: CCC1(c2ccccc2)NC(=O)N(Cc2ccccc2)C1=O (single isomer, unassigned; (+)) [(+)-N-3-benzylnirvanol]
- CYP 2C19 IC50 Acceptance Range (CYP 2C19): 0.100~0.350 μM

SMILES: O=C(Nc1ccc(Cl)cc1)N1CCN(c2ccc3nncn3n2)CC1 [MMV665917]
- Selectivity Index C. parvum over mammalian cells (Cryptosporidium parvum): > 20

SMILES: NC(=O)N1c2ccccc2C=Cc2ccccc21 [Carbamazepine]
- Kinetic Solubility pH=7.4 [5]: 43 ± 4 µg/mL

- pKi (M3 receptor): 7.46
SMILES: O[Si](CCCN1CCCCC1)(c1ccc(F)cc1)C1CCCCC1 (stereo not drawn) [p-F-HHSiD]

SMILES: O=C(C1CCCCC1)N1CC(=O)N2CCc3ccccc3C2C1 (stereo not drawn) [Praziquantel]
- S. mansoni adult males 48hr motility assay ([6]; 48 h, 5µM): zero
- S. mansoni adult males visual tox scale, 0 = none, 4=most damaged ([6]; 48hr at 5 µM): 4
- somule severity score [7]: 4
- pEC50 [8]: 5.66
- pEC50 (S. mansoni adult worms): 6.70

SMILES: CC(=O)CC(c1ccccc1)c1c(O)c2ccccc2oc1=O (stereo not drawn) [Warfarin]
- Plasma Protein Binding Bound% Human [9]: >98%

SMILES: O=c1nc(C=Cc2ccc(Br)cc2)oc2ccccc12 [MMV666599]
- binding to dUTPase (confirmation) (dUTPase): binding
- pIC50 (PfCDPK4): 6.15

SMILES: CO[C@H]1/C=C/O[C@@]2(C)Oc3c(C)c(O)c4c(c3C2=O)C2=NC3(CCN(CC(C)C)CC3)NC2=C(NC(=O)/C(C)=C\C=C\[C@H](C)[C@H](O)[C@@H](C)[C@@H](O)[C@@H](C)[C@H](OC(C)=O)[C@@H]1C)C4=O [rifabutin, reference compound]
- M. marinum intracellular growth, normalized value [10]: under 0.10
- Mycobacterium marinum relative growth DMSO=1 Antibiotic Assay (Mycobacterium marinum): under 0.10

- pKi (5-HT4 receptor): 9.35
SMILES: Cn1cc(C(=O)OCC2CCN(CCNS(C)(=O)=O)CC2)c2ccccc21 [GR113808]
